Reference: PubChem BioAssay (NCI)
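Method: 48-hour compound exposure of cells in 96-well plates, five concentrations, linear interpolation of endpoints. GI50 marks 50% less growth. The concentration for full growth arrest is given as TGI.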

Key:
Experiment in all cases: NCI tumour cell line growth inhibition, 48 h
[1] = system: NCI-H226 lung
[2] = system: NCI-H23 lung
[3] = system: NCI-H460 lung
[4] = system: NCI-H522 lung
[5] = system: NCI/ADR-RES ovarian
[6] = system: OVCAR-3 ovarian
[7] = system: OVCAR-4 ovarian
[8] = system: OVCAR-5 ovarian
[9] = system: OVCAR-8 ovarian
[10] = system: PC-3 prostate
[11] = system: RPMI-8226 leukemia
[12] = system: RXF 393 renal
[13] = system: SF-268 CNS
[14] = system: SF-295 CNS
[15] = system: SF-539 CNS
[16] = system: SK-MEL-2 melanoma
[17] = system: SK-MEL-28 melanoma
[18] = system: SK-MEL-5 melanoma
[19] = system: SK-OV-3 ovarian
[20] = system: SN12C renal
[21] = system: SNB-19 CNS
[22] = system: SNB-75 CNS
[23] = system: SR leukemia
[24] = system: SW-620 colon
[25] = system: T-47D breast
[26] = system: TK-10 renal
[27] = system: U251 CNS
[28] = system: UACC-257 melanoma
[29] = system: UACC-62 melanoma
[30] = system: UO-31 renal

CC1=C(c2cc(-c3ccc(Cl)cc3)c(C#N)c(N)n2)C(c2ccccc2)NC(=S)N1 (centres undefined)
TGI [1]: 44.6 µM | GI50 [2]: 13.6 µM | TGI [2]: 29.6 µM | GI50 [3]: 20.3 µM | TGI [3]: 53.8 µM | GI50 [4]: 14.7 µM | TGI [4]: 29.5 µM | GI50 [5]: 0.671 µM | TGI [5]: 26.2 µM | GI50 [6]: 13.8 µM | TGI [6]: 47.4 µM | GI50 [7]: 28 µM | TGI [7]: > 100 µM | GI50 [8]: 17.8 µM | TGI [8]: 35.5 µM | GI50 [9]: 20 µM | TGI [9]: > 86.4 µM | GI50 [10]: 11 µM | TGI [10]: 53.1 µM | GI50 [11]: 0.692 µM | TGI [11]: 34.1 µM | GI50 [12]: 11.6 µM | TGI [12]: 24.3 µM | GI50 [13]: 17.6 µM | TGI [13]: 67.2 µM | GI50 [14]: 10.8 µM | TGI [14]: 24.4 µM | GI50 [15]: 10.1 µM | TGI [15]: 23 µM | GI50 [16]: 17.5 µM | TGI [16]: 34.2 µM | GI50 [17]: 14.9 µM | TGI [17]: 30 µM | GI50 [18]: 6.62 µM | TGI [18]: 20.1 µM | GI50 [19]: 23.7 µM | TGI [19]: 67.9 µM | GI50 [20]: 5.86 µM | TGI [20]: 21.6 µM | GI50 [21]: 16.7 µM | TGI [21]: 53.8 µM | GI50 [22]: 7.01 µM | TGI [22]: 47 µM | GI50 [23]: 0.0842 µM | TGI [23]: > 48.7 µM | GI50 [24]: 11 µM | TGI [24]: 32.5 µM | GI50 [25]: 11.4 µM | TGI [25]: 47.5 µM | GI50 [26]: 23.1 µM | TGI [26]: 61 µM | GI50 [27]: 12.5 µM | TGI [27]: 28.1 µM | GI50 [28]: 16.1 µM | TGI [28]: 38.8 µM | GI50 [29]: 13.1 µM | TGI [29]: 26.9 µM | GI50 [30]: 13.3 µM | TGI [30]: 26.3 µM
